# Test system: BOIVE: whitehead broom (Borerria verticillata)
# Assay: Postemergence herbicidal activity of mixtures in the field, visual weed control
# Format: in vivo
# Conditions: postemergence field trial
# Procedure: Field trials were conducted in Brazil in pasture area cultivated with Brachiaria brizantha using standard herbicide small-plot research methodology. The plot size used was 3 meters (m)×8 m (width×length) with 4 replicates per treatment. The pasture was grown using normal cultural practices for fertilization, management, and maintenance to ensure good growth of the crop and the weeds. […] All treatment results, both for the single product and mixtures, are an average of 3 to 4 replicates and the tank-mix interactions are significant at the […] level. Colby's equation was used to determine the herbicidal effects expected from the mixtures (Colby, S. R. Calculation of the synergistic and antagonistic response of herbicide combinations. […] However, the experiments described herein were performed such that active ingredients B and C were combined and only the efficacy of the combination was determined. As such, Colby's equation simplifies to Expected=A+Z−(AZ/100) A=observed efficacy of active ingredient A (flumioxazin) at the same concentration as used in the mixture; […] All comparisons are an average of 3 to 4 replicates and are significant at the […] level.
smiles,measurement,setting,value
"C#CCN1C(=O)COc2cc(F)c(N3C(=O)C4=C(CCCC4)C3=O)cc21 [Flumioxazin, 2-[7-fluoro-3,4-dihydro-3-oxo-4-(2-propyn-1-yl)-2H-1,4-benzoxazin-6-yl]-4,5,6,7-tetrahydro-1H-isoindole-1,3(2H)-dione]",% Visual Control BOIVE (281 DAA) Obs,Flumioxazin 25 g ai/ha alone,0%
same,% Visual Control BOIVE (281 DAA) Obs,Flumioxazin 50 g ai/ha alone,0%
same,% Visual Control BOIVE (281 DAA) Obs,Flumioxazin 75 g ai/ha alone,4%
same,% Visual Control BOIVE (281 DAA) Obs,Flumioxazin 100 g ai/ha alone,13%
same,% Visual Control BOIVE (281 DAA) Obs,Flumioxazin 125 g ai/ha alone,14%

# Reference: patent US20150173364A1, “HERBICIDAL COMPOSITIONS CONTAINING FLUMIOXAZIN, AMINOPYRALID AND FLUROXYPYR OR 2,4-D” (Dow AgroSciences LLC, priority 2013, published 2015)
